Laboratory results published in US7833736B2, “Protein markers of responsiveness to type III receptor tyrosine kinase inhibitors” (Cell Signaling Technology, Inc., priority 2006, dated 2010).

Tested on: human tumor xenografts
Assay: Growth of human tumor xenografts under OSI-930 (growth curves of xenograft tumor mass)
Type: in vivo, mice

SMILES: O=C(Nc1ccc(OC(F)(F)F)cc1)c1sccc1NCc1ccnc2ccccc12 [OSI-930]
- response of xenograft tumor growth to the drug (growth curves of tumor mass) (five of the cell line xenograft models, data not shown): resistant
- response of xenograft tumor growth to the drug (growth curves of tumor mass) (the other seven cell line xenograft models): significant inhibition of tumor growth
